Compound | melting point
O=C(Nc1ccc(Cl)cc1)C(F)(F)C(O)(Cn1cncn1)c1ccc(F)cc1F (centres undefined) | 86 to 87 °C
COc1nc2cc(Cl)c(Cl)c(C(=O)O)c2nc1OC | 230 to 232 °C
CCOC(=O)C1Cc2cc3c(CC)noc3c(Cl)c2O1 (centres undefined) | 95 to 96 °C
COC(=O)c1ccc(C2c3[nH]c4ccccc4c3CCN2C(=O)C=Cc2cccc(C(=O)OC)c2)cc1 (centres undefined) | 182 °C
COC(=O)CC[C@H](NC(=O)c1ccc(C(CO)CCCc2c(N)nc(N)nc2O)cc1)C(=O)OC (some centres undefined) | 104 °C
CC(C)Oc1ccc(C(=O)NCCCCCCCNC(=O)c2ccc(OC(C)C)cc2)cc1 | 135 to 136 °C
CCSc1cc(SCC)c2ccc3c(SCC)cc(SCC)c4ccc1c2c43 | 180 °C
CC(=O)c1cc(C2CCCCC2)ccc1O | < 50 °C
CC#CCOc1cc(-c2ccccc2)ncn1 | 59.6 °C
CCOc1cc2cc(COC(C)=O)c(COC(C)=O)c(-c3ccnc(-n4ccc5ccccc5c4=O)c3)c2cc1OCC | 90 to 93 °C
CC1C(=O)Nc2c(Oc3ccccc3Cl)cccc21 (centres undefined) | 138 to 139 °C
O=C(Nc1ccc(C(=O)N2CCCc3cc(F)ccc32)cc1)c1cc(Cl)cc(Cl)c1 | 206 °C
CC(=O)c1ccc(NC(=O)C(C)(C)C)nc1 | 113 to 115 °C
CN(C)NC1=C2N=c3cc(Cl)ccc3=C2Oc2ccccc2N1C | 196 to 197 °C
O=C(Nc1n[nH]c(=S)s1)NC(CC1CCCCC1)C(=O)NCCc1ccccc1 (centres undefined) | 199 to 200 °C
CCc1cc(CC)c(-c2c(O)c(C)nn(C)c2=O)c(CC)c1Br | 225 to 226 °C
CCCCc1c(C(=O)c2ccc(OC)cc2)c2cc([N+](=O)[O-])ccc2n1C | 168 °C
CCCCCCCCCCC(C)(C)NC(=O)Nc1cc(OC)cc(C(C)(C)C)c1OCOC | 83 to 85 °C
C#CCOCCn1c(N2CCN(C)CC2)nc2ccccc21 | 145 to 146 °C
CCc1nn(-c2cc(NC(C)=O)ccc2Cl)c(=O)n1Cc1ccc(-c2ccccc2S(=O)(=O)NC(=O)OC(C)(C)C)cc1F | 158 to 160 °C
CCCSc1sc(C(N)=O)c2c1-c1[nH]ncc1CC2 | 163 to 164 °C
O=C(Nc1nnn[nH]1)c1c[nH]c(=S)n1C1CCc2c(F)cc(F)cc2C1 (centres undefined) | 228 to 230 °C
CCN(c1nc2ccccc2[nH]1)C1CCN(CCc2ccccc2)CC1 | 205 °C
COC(=O)/C(C)=C1\CN2C(=O)CC2O1 (centres undefined) | 90 to 91 °C
CN(Cc1cccc2c1C(=O)N(C1CCC(=O)NC1=O)C2=O)C(=O)Nc1ccc2ccccc2c1 (centres undefined) | > 260 °C
Cc1ccc2[nH]nc(S(C)=O)c(=O)c2c1 (centres undefined) | 265 to 267 °C
CCN(C(=O)c1ccccc1C(=O)c1ccccc1)C(C)(C)CNS(=O)(=O)c1ccc(C)cc1 | 157 to 160 °C
CCOC(=O)CSC(C)=NO | 90 to 92 °C

Compound | melting point
NC1=NC(c2ccc(OC(F)F)cc2)(c2cccc(-c3cccnc3F)c2)C2=NCC3(CCC3)CN12 (centres undefined) | 220 to 226 °C
N#CCC1(O)CCc2ccccc2C12CCCC2 (centres undefined) | 165 to 166 °C
CCOC(OCC)c1nc2sc(C)c(C)n2c(=O)c1C | 84 to 85 °C
O=C1N=NC(=O)c2c1[nH]c1cc(Br)cc(Br)c21 | > 400 °C
Cc1ccc(-c2cc(Cl)cc3c2NC(CN)CO3)c(C(F)(F)F)c1 (centres undefined) | 98 °C
N#Cc1cc(N2CCN(CC[C@H]3CC[C@H](NS(=O)(=O)c4cccnc4)CC3)CC2)cc(C(F)(F)F)c1 | 194 to 195 °C
CCCCC(CC)Cn1c2cc(CO)ccc2c2ccc(CO)cc21 (centres undefined) | 119 to 120 °C
COc1cccnc1C(O)c1cc(F)ccc1F (centres undefined) | 94 to 95 °C
COc1ccc2oc(-c3ccccc3)c(C)c2c1 | 106 to 107 °C
O=C1SCc2c(Cl)c(Cl)c(Cl)c(Cl)c21 | 181 to 183 °C
CCCCc1c(NCCCO)cnn(C(C)(C)C)c1=O | 106 to 108 °C
Cn1c(C(F)(F)F)ccc(-c2cc(S(C)(=O)=O)c(Cl)cc2F)c1=O | 144 to 145 °C
Cc1cn(N=Cc2cccnc2)c(=O)n1CC#N | 195 to 198 °C
Nc1ccc(Oc2ccccc2OCc2ccccc2)cc1 | 111 to 112 °C
CC1CC(=O)N(c2ccncc2)C1=O (centres undefined) | 119 to 120 °C
FC(F)(F)C(F)(F)CCCSCCCCCOc1ccc(C2=C(c3ccccc3)CCCc3ccccc32)cc1 | 84 to 85 °C
C=CC(=O)NCCCCCCCCCCCCCCCCCC | 75 to 77 °C
COc1cc(C(=O)N[C@@H](CCC(=O)O)C(=O)O)ccc1NCCCc1c(N)nc(N)[nH]c1=O | 165 to 184 °C
CS(=O)(=O)Oc1cccc2c1CCCN2 | 74 to 76 °C
CC(C)C=C1CCC2(C1)C(=O)C=C(OC(C)C)CC2C (centres undefined) | 88 to 91 °C
CCCC1CCC2C3CCc4cc(O)c(C=O)cc4C3CCC12C (centres undefined) | 122 to 123 °C
CC(C)N(C(=O)c1ccc(OCCCCCOc2ccc(C(N)=NO)cc2)cc1)C(C)C | 146 to 149 °C
O=C(O)C(CC1CCCC1)c1ccc(S(=O)(=O)C2CCCC2)cc1 (centres undefined) | 165 to 167 °C
CCCCCS(=O)(=O)NC(=O)/C=C/c1ccc(OCCOC)cc1Cc1ncc(Br)s1 | 88.5 to 89.1 °C
C=C1/C(=C\C=C2/CCC[C@@]3(C)[C@H]2CC[C@@H]3[C@]2(C)C[C@H](CC(C)(C)O)CO2)C[C@@H](O)C[C@@H]1O | 128 °C
CC1(C)C2CCC1(C)C(O)(c1ccccn1)C2 (centres undefined) | 60 to 61 °C
C#CCNC(=NCCSCc1ccccn1)NC#N | 124 to 130 °C

Further lines, results first:

melting point | Compound
273 to 275 °C | CSc1ccc2c(C3=C(c4cn(C)c5cc([N+](=O)[O-])ccc45)C(=O)NC3=O)cn(C)c2c1
185 to 187 °C | NC(=S)Nc1cc(F)ccc1-c1ccccc1
213 to 214 °C | O=C(O)C1=Cc2cc(-c3ccc(F)cc3)ccc2CC1
150 to 152 °C | CCCc1ccc(S(=O)(=O)NN2CCOCC2)cc1
166 to 168 °C | CC(=O)NNc1nnc(-c2ccccc2)c(-c2ccccc2)n1
137 to 139 °C | N#CN1CCC(c2nn(-c3ccccc3)c3ccc(F)cc23)CC1
197 to 198 °C | CCOC(=O)c1nc(-c2ccc(F)cc2)[nH]c1CC
155 to 159 °C | COC(=O)CCc1cc2cc(Cl)ccc2n1S(=O)(=O)c1ccc(C#N)cc1
205 to 206 °C | CCOC(=O)C1=C(C(C)C)Nc2n[nH]cc2C1c1ccccc1[N+](=O)[O-] (centres undefined)
80 to 82 °C | N#CC1Cc2ccc([N+](=O)[O-])cc2C1 (centres undefined)
195 to 197 °C | O=c1ccc(-c2c(-c3ccccc3)nn3ccccc23)nn1[C@@H]1CCCC[C@@H]1O (relative stereo)
116 to 118 °C | CCCCc1ccc(Oc2ccc(C#CC(C)N(O)C(N)=O)o2)cc1 (centres undefined)
206 °C | CCOC(=O)c1cn(Cc2c(F)cccc2F)c2sc(-c3ccccc3)c(CBr)c2c1=O
270 to 273 °C | CCCn1c(=O)c2[nH]c(-c3cc(C)n(CC(=O)Nc4ccc(Br)cc4)n3)nc2n(CCC)c1=O
156 to 158 °C | N/C(=C1/Sc2ccccc2C1=O)c1ccccc1F
> 300 °C | COc1nc(-c2ccc(C(=O)O)cc2)cc2cccnc12
174 to 176 °C | Cn1c(=O)n(C)c2cc(C(=O)CSCCC(=O)O)ccc21
176 to 177 °C | O=c1[nH]c(N2CCN(Cc3ccccc3)C(CO)C2)cc2ccccc12 (centres undefined)
169 to 171 °C | CC(=O)N(CCCOc1ccc(C(=O)O)cc1)c1ccc(Cl)cc1
45 to 47 °C | CCOC(=O)CC(=O)N(C)c1ccc(Cl)cc1[N+](=O)[O-]
208 to 209 °C | COc1nc(C)cnc1NS(=O)(=O)c1cccnc1-c1ccc(NC(C)=O)cc1
151 to 153 °C | CCOC(=O)C(=O)Nc1cccc(OCc2ccccc2)c1C(N)=O
> 280 °C | O=c1[nH]c2cc(Br)ccc2c(=O)n1Cc1ccc(Br)cc1F
276 to 280 °C | C1=c2cc3c(cc2Sc2ccccc21)=Cc1ccccc1S3
154 to 156 °C | COCc1nc2c(OC)ccc(CCc3ccncc3)c2[nH]1

melting point | Compound
156 to 162 °C | CN1C(=O)CC[C@]2(C)c3ccc(Sc4nc5ccc(Cl)cc5s4)cc3CC[C@@H]12
213 to 216 °C | CC(=O)c1ccc(-c2ncc[nH]2)cc1
186 to 187 °C | O=C(CBr)c1csc(-c2ccc([N+](=O)[O-])cc2)n1
236 to 238 °C | O=C1Nc2c(ccc3ccccc23)SC1c1ccc(Cl)cc1 (centres undefined)
196 °C | CNC1(Cc2ccccc2)C(=O)Nc2ccc(Cl)cc21 (centres undefined)
82 to 86 °C | COc1ccc(CC(O)CO)c(OCc2ccccc2)c1 (centres undefined)
132 to 133 °C | Fc1cc(F)c(-c2c(F)nnc(F)c2-c2ccc(Br)cc2)c(F)c1
150 to 154 °C | CC1(C)CCN(c2ccc(-c3nc(C(=O)Nc4nccs4)c(-c4ccc(Cl)cc4)[nH]3)cc2)CC1
123 °C | CCC(=O)c1ccc(COc2ccc(CO)c(CO)c2)s1
> 250 °C | CCCC1=C(C#N)C(c2cccc(C#N)c2Cl)c2c[nH]nc2N1 (centres undefined)
164 to 166 °C | CCOC(=O)c1ccc2c(c1)nc(-c1c(Cl)cccc1Cl)n2C
61 to 63 °C | CC(CO)c1ccc(-c2ccccc2)c(F)c1 (centres undefined)
130 to 132 °C | N#Cc1ccc(OCCCCOc2cccc(-c3cc4cc(C#N)ccc4o3)c2)cc1
220 to 225 °C | C#CCc1c(-c2ccccc2)nc(C)[nH]c1=O
208 to 209 °C | Cc1cc(C(=O)O)ncc1C(c1cc(F)ccc1F)S(=O)(=O)c1ccc(Cl)cc1 (centres undefined)
105 °C | O=C(CCCCCBr)NC(C(=O)c1ccc(Cl)cc1)c1ccc(Cl)cc1 (centres undefined)
132 to 134 °C | COc1ccc(COc2cccc(C(=O)Nc3ccc(C#N)cn3)c2)cc1
155 to 158 °C | COc1ccc(-c2nc3n(c2-c2ccc(OC)cc2)CCS3)cc1
136 to 137 °C | O=C(O)CCc1cnoc1-c1ccc(F)c(Br)c1
171 to 173 °C | CC(COc1ccc(C(N)=O)c(O)c1)NCC(O)c1ccccc1 (centres undefined)
> 300 °C | O=c1ccc2c(-c3ccco3)nccc2[nH]1
131 °C | CC(C)(O)C(=O)c1ccc(F)cc1
75 to 79 °C | COC(=O)C(C#N)CC(=O)c1ccc(Cl)cc1 (centres undefined)
189 to 191 °C | Cc1ccnn1-c1ccc(NC(=O)c2ccc(Cl)cc2)cc1
